Reference: US9872849B2, “Diterpenoid membranolide compounds having anti-leishmania activity and uses thereof” (UNIVERSITY OF SOUTH FLORIDA, priority 2014, dated 2018)
Like-named read-outs stand apart in the source and are kept apart here.

Assays:
[1] = test system: L. donovani axenic amastigotes; assay: microbe, parasite or virus in culture; format: cell-based, Leishmania donovani
Experimental: (§1) Leishmaniasis efficacy was tested against L. donovani axenic amastigotes (amphotericin B, positive control=0.38 μM). Cytotoxicity was verified against Vero cells.

Vero cells = assay: Cytotoxicity against Vero cells; format: cell-based; details: for IC50: cytotoxicity, read-out: IC50 Values Vero Cell
Experimental: as §1

[2] = axenic amastigotes, read-out: IC50 Values Leishmania donovani

| Compound | IC50 [1, 2] | IC50 (Vero cells) | other results |
| --- | --- | --- | --- |
| membranolide H | 1.14 µM | > 53.1 µM | activity against L. donovani (in words) [1]: potent activity; cytotoxicity (in words) (Vero cells): lacking significant cytotoxicity |
| CO[C@@H]1O[C@@H](OC)c2c1ccc([C@@]1(C)CCCC(C)(C)C1)c2[C@@H](C)C(=O)O [Membranolide D, membranolide D] | – | – | IC50 ([1]; Leishmania donovani, axenic amastigotes): > 53.1 µM; IC50 (Vero cells; Chlorocebus sabaeus): 40.7 µM |
| membranolide F | 26.7 µM | 42.4 µM | – |
| CC(=O)O[C@@H]1OC2OC(=O)[C@H](C)C3=C([C@@]4(C)CCCC(C)(C)C4)CCC1C32 (stereo partly drawn) [Tetrahydroaplysulphurin, tetrahydroaplysulphurin] | 17.3 µM | 53.3 µM | – |
| membranolide A | – | > 58.1 µM | IC50 Values Leishmania donovani ([1]; axenic amastigotes): Inactive |
| membranolide G | 0.82 µM | > 53.1 µM | activity against L. donovani (in words) [1]: potent activity; cytotoxicity (in words) (Vero cells): lacking significant cytotoxicity |
| C[C@@H]1[C@H](O)[C@@H](C)/C=C/C=C/C=C/C=C/C=C/C=C/C=C/[C@H](O[C@@H]2O[C@H](C)[C@@H](O)[C@H](N)[C@@H]2O)C[C@@H]2O[C@](O)(C[C@@H](O)C[C@@H](O)[C@H](O)CC[C@@H](O)C[C@@H](O)CC(=O)O[C@H]1C)C[C@H](O)[C@H]2C(=O)O [amphotericin B, reference compound] | 0.38 µM | – | – |
| CO[C@H]1OC(=O)[C@H](C)c2c([C@@]3(C)CCCC(C)(C)C3)ccc(C=O)c21 [Membranolide B, membranolide B] | 58.1 µM | 44.3 µM | – |
| aplysulphurin | 1.56 µM | 47.7 µM | selectivity index (cytotoxicity/activity) [1]: high selectivity index |
| CO[C@@H]1O[C@@H](OC)c2c1ccc([C@@]1(C)CCCC(C)(C)C1)c2[C@@H](C)C(=O)O [Membranolide C, membranolide C] | > 53.1 µM | 40.7 µM | – |
